Laboratory results as given in US11730714B2, “Compounds for the treatment of neuromuscular disorders” (NMD PHARMA A/S, priority 2017, dated 2023).

Key:
[1] = tested on: isolated rat soleus muscles; experiment: Recovery of nerve-stimulated force in isolated rat soleus muscles with ACh receptors inhibited by 2 μM rocuronium; assay type: cell-based; conditions: 50 μM C8 added after 2 μM rocuronium had reduced force to 51±5%; 8 muscles; p<0.01
Procedure: In a separate series of experiments with 8 isolated rat soleus muscles, ACh receptors were inhibited using 2 μM rocuronium, which is a clinically used neuromuscular blocking agent. Under these conditions the nerve-stimulated force was reduced to 51±5% of force before rocuronium. […] This illustrates the potential of these compounds to be used as reversal agents.

[2] = tested on: isolated rat soleus muscles; experiment: Recovery of nerve-stimulated force in isolated rat soleus muscles exposed to 3.5 mM Mg2+; assay type: cell-based; conditions: 3.5 mM Mg2+, after 70 min at elevated Mg2+
Procedure: Experiments were performed using rat soleus muscles from either young (4-wk-old) or adult Wistar rats (12-14-week-old). Animal handling, killing and isolation of muscle is described elsewhere All experiments were performed using normal Krebs-Ringer bicarbonate solution (NKR). In solutions with elevated Mg^2+, MgCl2 was added to NKR-solution causing minor increases in osmolarity and ionic strength. In solutions with elevated K^+, 4 mM NaCl was replaced by 4 mM KCl in the NKR.
The aim was to find compounds that by inhibition of CIC-1 channels can recover nerve-stimulated force under conditions of fatigue including conditions where fatigue is caused by compromised neuromuscular transmission. Neuromuscular transmission dysfunction can develop because of both pre- and/or post-synaptic complications in connection with a disorder or as part of neuromuscular blockade during/after surgery. In the initial series of drug testing, experiments were performed with isolated muscles in the presence of sub-maximal ACh receptor antagonist tubocurarine. […] To mimic conditions with pre-synaptic complication (Lambert Eaton syndrome, motor neuron disorder, polyneuropathy) the intact nerve-muscle preparations were incubated at elevated extracellular Mg^2+, which is known to suppress release of ACh from nerve terminals of motor neurons.

[3] = tested on: rats injected with tubocurarine; experiment: Rotarod running performance of rats after I.P. tubocurarine (myasthenia-like phenotype); assay type: in vivo, rat; conditions: C8 20 mg/kg I.P. 2 hrs before tubocurarine 0.13 mg/kg I.P.; tested 21 min after tubocurarine; sham around 2%
Procedure: FIGS. 9A-9B. […] FIG. 9A illustrates the design of the experiments. Prior to Day One the animals had been familiarized to the rotarod in three training sessions distributed over two days.
(§1) In both series of experiments, running performance was tested on a rotarod using a protocol where the rod was accelerated gradually over a 5 min period, and the running time and covered distance before falling off the rod were measured. […] Experiments with tubocurarine were carried out over two days, and on each day the effect of tubocurarine on running performance was tested. On the first day only tubocurarine was injected. […] On the second day, the animals were first allowed to run on the rotarod, and all animals performed normally. […] The allocation of the animals into the two groups (C8 or sham) was random and unknown to the experimenter (blinded experimental design).
In the first series of in vivo experiments, myasthenia gravis was simply mimicked by I.P. injection of tubocurarine (0.13 mg/kg) in animals that had been familiarized to running on the rotarod. On the first of two consecutive days, tubocurarine was injected I.P. and the running performance of the animal was tested 21 minutes after this injection. On the second day of experimentation, the animals first performed a test run to ensure that they were no longer affected by the tubocurarine injected the day before. […]

[4] = tested on: rats injected with MAB35; experiment: Rotarod running performance in passive myasthenia gravis induced in rats with MAB35 antibody; assay type: in vivo, rat; conditions: after stable reduction in performance by MAB35, vs sham
Procedure: FIG. 10. […] Prior to I.P. injection of MAB35 the animals had been familiarized to the rotarod over three training sessions distributed over two days. […] After this treatment performance was monitored every second hour. *Indicates significant different as evaluated using student t-test.
as §1
In experiments with MAB35, animals were first familiarized with the rotarod over two consecutive days and then injected I.P. with MAB35. After injection, rotarod performance was then again monitored regularly over the consecutive two days. […] A considerable number of animals, however, became moribund failing to walk and they had altered ventilation (rapid) and pronounced ptosis. These animals were not included in experiments. […]

[5] = tested on: Lewis rats; experiment: In situ muscle contractile characteristics: isometric hindlimb force in rats under Cisatracurium infusion; assay type: in vivo, rat; conditions: 20 mg/kg i.v.
Procedure: Isometric hindlimb force was measured in 12-week old female Lewis rats in the presence and absence of compound.
Rats were placed under anesthesia with isoflurane (2-4%), intubated and subsequently connected to a micro ventilator (Microvent 1, Hallowell EMC, US). Two stimulation electrodes were inserted through the skin to stimulate the sciatic nerve. A small incision was made proximal to the ankle, to expose the Achilles tendon, which was tied by cotton string, and connected to a force transducer (Fort250, World Precision Instruments) with adjustable position (Vernier control). The Achilles tendon was then cut distal to the attached cotton string. […]
Muscle contractile properties were assessed by applying an electrical current (under supramaximal voltage conditions) to the nerve and recording the force generated by the muscle. The muscle was stretched until maximal force was obtained, when assessed by 2 Hz stimulation. Isometric force was measured every 30 seconds at 12 Hz (Twitch), 10 pulses, and at every 5 minutes at 80 Hz (Tetanic) for 1 second (80 pulses). […] The effect of test article was assessed on its ability to increase force generated from the stimulation pattern applied. The effect was assessed in the ability to increase force per se (tetanic, 80 Hz, stimulation), and the ratio between individual twitch peaks (12 Hz stimulation). […]

| Compound | nerve-stimulated contractile force recovered to % of force before rocuronium [1] [%] | 50 μM % change after addition (AUC of nerve-stimulated force) ([2]; 50 μM compound) [%] | 100 μM % change after addition (AUC of nerve-stimulated force) ([2]; 100 μM compound) [%] | increase in running performance on the second day vs the first day (rotarod) [3] | rotarod performance after injection ([4]; C8 20 mg/kg) | rotarod performance after injection ([4]; C8 30 mg/kg) | average increase in twitch peaks ([5]; 12 Hz stimulation) [%] | average increase in tetanic force ([5]; 80 Hz stimulation) [%] |
| --- | --- | --- | --- | --- | --- | --- | --- | --- |
| C[C@H](Oc1ccc(Br)cc1)C(=O)O [Compound C8, (2S)-2-(4-bromophenoxy)propanoic acid] | 81±4 | 13 ± 4 | 26 ± 5 | around 150% | decline was reduced | clear recovery of performance |  |  |
| (2S)-2-(4-bromophenoxy)(2-^2H)butanoic acid [Compound A-60] |  |  |  |  |  |  | 18.5 | 52.7 |
